These are literature values, as cited in patent US20200246411A1, “ANTI-DIARRHOEAL HERBAL COMPOSITIONS” (SRH NUTRITION LLP, priority 2017, published 2020).

The structures appear in SMILES notation.

The conditions of this data set: conventional drug use.
Take `[Bi]` [Bismuth]: the “disadvantages / adverse reactions” value is reported as “Causes adverse reactions (dizziness, cephalea, constipation, dark stools,”.

For the molecule `COc1ccc2c3c1O[C@H]1[C@@H](O)C=C[C@H]4[C@@H](C2)N(C)CC[C@@]341` [Codeine], the “disadvantages / adverse reactions” value is “Produces secondary effects such as nausea, dizziness and acts against”.

Regarding `CCOC(=O)C1(c2ccccc2)CCN(CCC(C#N)(c2ccccc2)c2ccccc2)CC1` [Diphenoxylate], the “disadvantages / adverse reactions” value is “Therapeutic doses induce adverse reactions in the CNS (confusion,”.

Turning to `CN(C)C(=O)C(CCN1CCC(O)(c2ccc(Cl)cc2)CC1)(c1ccccc1)c1ccccc1` [Loperamide], the “disadvantages / adverse reactions” value is given as “Frequent adverse reactions induced are hypersensibility reactions”.

For `CC(=O)SCC(Cc1ccccc1)C(=O)NCC(=O)OCc1ccccc1` (centres unmarked) [Racecadotril], the “disadvantages / adverse reactions” value was “Cause some adverse reactions such as hypokalemia, bronchospasm,”.
